Reference: patent US20210220331A1, “INHIBITORS OF IRES-MEDIATED PROTEIN SYNTHESIS” (The Regents of the University of California, priority 2016, published 2021)

Tests used:
Format in all cases: cell-based
[1] = system: human cyclin D1 IRES; assay: Dicistronic IRES mRNA reporter assay (firefly luciferase), cyclin D1 IRES; conditions: LN229; relative to values obtained with parent compound C11
Method: (§1) Western blot and quantitative RT-PCR analyses were performed as previously described (19). For Western blotting, cells or tissues were lysed in RIPA (lysis) buffer containing protease inhibitor cocktail and phosSTOP phosphatase inhibitor cocktail (Roche) and extracts resolved by SDSPAGE. Proteins were transferred to PVDF membranes and incubated with the indicated antibodies. For IRES reporter assays, the indicated mRNA reporters were cotransfected into cells with pSVβ-galactosidase to normalize for transfection efficiency as described previously (16). Cells were harvested 18 h following transfection and Renilla, firefly and β-galactosidase activities determined using the Dual-Glo Luciferase and β-galactosidase assay systems (Promega).
(§2) (B) Schematic diagrams of the dicistronic constructs used in this study. Constructs used are pRF, pRCD1F, which contains the human cyclin D1 IRES, pRmycF, containing the human c-myc IRES, pRp27F, containing the human p27Kip1 IRES and pRECMVF, containing the IRES from encephalomyocarditis virus. (C) Relative Renilla and firefly luciferase activities obtained from LN229 GBM cells transfected with the indicated constructs in the absence or presence of the inhibitor C11. The mean and +SD are shown for three independent experiments. […] (D) RNA-pull down assays utilizing biotinylated cyclin D1 or c-MYC IRES RNAs. Cytoplasmic extracts of LN229 cells treated with C11 (50 nM) as indicated were incubated with biotinylated cyclin D1 or c-MYC IRES RNAs and precipitated with streptavidin-Sepharose beads. Input and bound fractions were analyzed by immunoblotting using hnRNP A1 antibodies. […] RT-PCR measurements were performed in quadruplicate and the mean and +S.D. are shown. […] (F) Top panel, LN229 cells were treated with C11 as indicated and RT-PCR splicing analysis for Max exon 5 performed as described in the Experimental Methods section. Middle panel, LN229 cells treated with C11 (50 nM) as indicated, were lysed and immunoprecipitated using either eIF-4E or control IgG antibodies. Bound CCND1 or c-MYC RNAs were detected via RT-PCR. The mean and +S.D. are shown for three independent experiments. Bottom panel, cyclin D1 and c-MYC protein levels from the indicated GBM cell lines in the absence or presence of C11 at 24 h following treatment. C11 specifically blocks c-Myc IRES-mediated translation initiation by disrupting the ITAF hnRNP A1-IRES interaction.
(§3) Several dicistronic IRES mRNA reporter constructs were utilized, shown in FIG. 1B, in which the indicated IRES sequences were inserted within the intercistronic region. LN229 cells transiently transfected with these constructs were assayed for Renilla and firefly luciferase activities, which are readouts of cap-dependent and IRES-mediated translation initiation, respectively (16). […]

[2] = system: LN229 cells; assay: Apoptosis via Annexin V staining in LN229; conditions: LN229 cotreated with PP242 (50 nM) and analog (100 nM), 24 h
[3] = system: LN229 cells; assay: Combination analysis with PP242 (XTT, combination index) in LN229; conditions: combination of PP242 and analog, CI=1.0 dose additive, CI<0.5 synergy, CI<0.3 strong synergy
Description: Fold decrease in either PP242-induced cyclin D1 or c-MYC IRES activity in LN229 relative to values obtained with the parent compound C11 are shown for each analog. […] CI=1.0 (dose additive), CI<0.5 (synergy), CI<0.3 (strong synergy).
The structure-activity relationships (SAR) for C11 and related compounds were investigated by synthesizing and testing the analogs listed in Table 1. […] The degree of apoptotic cell death following co-treatment with analog and PP242 was also monitored.

[4] = system: human c-myc IRES; assay: Dicistronic IRES mRNA reporter assay (firefly luciferase), c-myc IRES; conditions: LN229; relative to values obtained with parent compound C11
Method: as §1, §2, §3

| SMILES | Cyclin D1 (decrease): fold decrease in PP242-induced cyclin D1 IRES activity [1] | % Apoptosis (100 nM) [2] | CI ED50, 1:100 (combination index) [3] | c-myc (decrease): fold decrease in PP242-induced c-MYC IRES activity [4] |
| --- | --- | --- | --- | --- |
| COc1ccc(CN2C(=O)C=CC2=O)c(OC)c1 [IRES-J000, 1-((2,4-Dimethoxyphenyl)methyl)-1H-pyrrole-2,5-dione] | 1.05 ± 0.21 fold | 25.6% | 0.51 | 1.01 ± 0.03 fold |
| O=C1C=CC(=O)N1Cc1ccccc1 [IRES-J001, 1-Phenylmethyl-1H-pyrrole-2,5-dione] | 1.49 ± 0.05 fold | 30.2% | 0.89 | 1.12 ± 0.13 fold |
| COc1ccc(CN2C(=O)C=CC2=O)cc1 [IRES-J002, 1-((4-Methoxyphenyl)methyl)-1H-pyrrole-2,5-dione] | 1.60 ± 0.18 fold | 28.6% | 0.86 | 1.37 ± 0.21 fold |
| O=C1C=CC(=O)N1Cc1ccc(F)cc1 [IRES-J003, 1-((4-Fluorophenyl)methyl)-1H-pyrrole-2,5-dione] | 0.97 ± 0.06 fold | 27.1% | 0.88 | 1.19 ± 0.04 fold |
| COc1ccc(CN2C(=O)C(C)=C(C)C2=O)c(OC)c1 [IRES-J004, 1-((2,4-Dimethoxyphenyl)methyl)-3,4-dimethyl-1H-pyrrole-2,5-dione] | 1.42 ± 0.07 fold | 24.8% | 0.82 | 1.39 ± 0.11 fold |
| COc1ccc(CN2C(=O)C(c3ccccc3)=C(c3ccccc3)C2=O)c(OC)c1 [IRES-J005, 1-((2,4-Dimethoxyphenyl)methyl)-3,4-diphenyl-1H-pyrrole-2,5-dione] | 1.32 ± 0.14 fold | 23.5% | 0.91 | 1.28 ± 0.16 fold |
| COc1ccc(CN2C(=O)CCC2=O)c(OC)c1 [IRES-J006, 1-((2,4-Dimethoxyphenyl)methyl)pyrrolidine-2,5-dione] | 1.26 ± 0.10 fold | 20.1% | 0.94 | 1.25 ± 0.19 fold |
| COc1ccc(N2C(=O)C=CC2=O)cc1 [IRES-J008, 1-(4-Methoxyphenyl)-1H-pyrrole-2,5-dione] | 5.58 ± 0.16 fold | 75.7% | 0.39 | 5.92 ± 0.10 fold |
| O=C1c2ccccc2C(=O)N1Cc1ccccc1 [IRES-J010, 2-(Phenylmethyl)isoindoline-1,3-dione] | 1.77 ± 0.16 fold | 19.7% | 0.83 | 1.94 ± 0.25 fold |
| O=C1c2ccccc2C(=O)N1Nc1ccccc1 [IRES-J011, 2-(Phenylamino)isoindoline-1,3-dione] | 1.91 ± 0.1 fold | 22.8% | 0.86 | 1.64 ± 0.18 fold |
| O=C1c2ccccc2C(=O)N1N(c1ccccc1)c1ccccc1 [IRES-J012, 2-(Diphenylamino)isoindoline-1,3-dione] | 1.02 ± 0.31 fold | 20.1% | 0.89 | 1.53 ± 0.17 fold |
| COc1ccc(N2C(=O)c3ccccc3C2=O)cc1 [IRES-J013, 2-(4-Methoxyphenyl)isoindoline-1,3-dione] | 1.17 ± 0.21 fold | 19.2% | 0.85 | 1.72 ± 0.06 fold |
| CN(C)c1ccc(N2C(=O)c3ccccc3C2=O)cc1 [IRES-J014, 2-(4-(Dimethylamino)phenyl)isoindoline-1,3-dione] | 1.86 ± 0.27 fold | 20.6% | 0.84 | 1.33 ± 0.11 fold |
| COCCCN1C(=O)c2ccccc2C1=O [IRES-J015, 2-(3-Methoxypropyl)isoindoline-1,3-dione] | 1.61 ± 0.15 fold | 18.3% | 0.88 | 1.25 ± 0.24 fold |
